From patent US5225411A, “Disubstituted polymethyleneimines” (priority 1990, dated 1993)

What was measured:
[1] = system: murine leukaemia P 388/ADR 10; experiment: Evaluation of the increase in cytotoxicity of adriamycin on the line P 388/ADR-10 in vitro (reversion factor); type: cell-based; details: adriamycin, P 388/ADR-10, 48 h, TOX = toxic
Description: In this study, the cytotoxicity of adriamycin was measured in the absence and in the presence of the reversing compound.
The compounds tested for their capacity to reverse MDR are added at the same time as the cytotoxic agent. The cells are then incubated for 48 hours.

[2] = system: Chinese Hamster Pulmonary Line DC-3F/AD; experiment: Increase in the cytotoxicity of actinomycin D on the Chinese hamster pulmonary line DC-3F/AD; type: cell-based; details: 4 days;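 note: DC-3F/AD is an extremely resistant cell line whose resistance factor exceeds 10,000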
Description: The cytotoxic agent used was actinomycin D.
Line DC-3F/AD is an extremely resistant line. Its resistance factor is higher than 10,000.

line DC-3F/AD = experiment: Flow cytometry, increase in fluorescence of ADR on the line DC-3F/AD; type: cell-based, Chinese Hamster; details: ADR 50 μM, 5 h
Description: (§1) By measuring that fluorescence it is possible to obtain a relative measurement of the intracellular concentration of ADR.
(§2) […] After 5 hours' incubation, the intracellular uptake of adriamycin was evaluated by FCM.
(§3) The analysis of each of the samples was carried out on a total of 10,000 cells at a speed of 1000 cells/sec.
(§4) The results were presented in the form of linear histograms of the intracellular ADR fluorescence.
(§5) Expression of the Results
(§6) For each of the histograms, the channel mean fluorescence was determined by the apparatus information system. For all experiments:
(§7) A negative control (cells without ADR) fixed the autofluorescence threshold.
(§8) A positive control (cells with ADR) determined the MEAN value=MN1.
(§9) The "test" tubes (cells with ADR and with compound) were used to determine, for each of the compounds and at each of the concentrations, the MEAN values=MN2.
(§10) The results are expressed in the form of variations from the mean fluorescence obtained for each of the "test" tubes (MN2) in relation to the mean fluorescence obtained with the […] (MNl) : VAR-MEAN=MN2 -MN1. The parameter expressed is thus the increase in the fluorescence of adriamycin in the presence of the tested compounds.

line P 388/ADR 10 = experiment: Flow cytometry, increase in fluorescence of ADR on the line P 388/ADR 10; type: cell-based, murine; details: ADR 50 μM, 5 h
Description: as §1, §2, §3, §4, §5, §6, §7, §8, §9, §10

| Structure (SMILES) | Reversion Factor (RF) ([1]; compound 2.5 μM) | Reversion Factor (RF) ([1]; compound 5 μM) | Reversion Factor (RF) ([1]; compound 10 μM) | Reversion Factor (RF) ([2]; compound 5 μM) | Reversion Factor (RF) ([2]; compound 10 μM) | Increase in fluorescence of ADR (VAR-MEAN = MN2 - MN1) (line DC-3F/AD; compound 2 μM) | Increase in fluorescence of ADR (VAR-MEAN = MN2 - MN1) (line DC-3F/AD; compound 5 μM) | Increase in fluorescence of ADR (VAR-MEAN = MN2 - MN1) (line DC-3F/AD; compound 10 μM) | Increase in fluorescence of ADR (VAR-MEAN = MN2 - MN1) (line DC-3F/AD; compound 20 μM) | Increase in fluorescence of ADR (VAR-MEAN = MN2 - MN1) (line P 388/ADR 10; compound 2 μM) | Increase in fluorescence of ADR (VAR-MEAN = MN2 - MN1) (line P 388/ADR 10; compound 5 μM) | Increase in fluorescence of ADR (VAR-MEAN = MN2 - MN1) (line P 388/ADR 10; compound 10 μM) | Increase in fluorescence of ADR (VAR-MEAN = MN2 - MN1) (line P 388/ADR 10; compound 20 μM) | Reversion Factor (RF) ([2]; compound 20 μM) | Reversion Factor (RF) ([2]; compound 2.5 μM) |
| --- | --- | --- | --- | --- | --- | --- | --- | --- | --- | --- | --- | --- | --- | --- | --- |
| C=CCNc1nc(NCCC)nc(N2CCC(NCC(c3ccccc3)c3ccccc3)CC2)n1 [Example 7, 1-(4-propylamino-6-allylamino-2-s-triazinyl)-4-(2,2-diphenylethylamino)piperidine] | 102.8 | 135.6 | TOX | 992 | 2339 | 14.47 | 26.0 | 34.17 | 36.63 | 48.75 | 72.6 | 80.9 | 87.3 | – | – |
| C=CCNc1nc(NCC=C)nc(N2CCC(NCC(c3ccccc3)c3ccccc3)CC2)n1 [Example 5, 1-[4,6-bis(allylamino)-2-s-triazinyl]-4-(2,2-diphenylethylamino)piperidine] | 100 | 189 | 277.4 | 658 | 1504 | 15.5 | 31.3 | 34.65 | 37.9 | 45.25 | 60.7 | 79.47 | 76.25 | TOX | – |
| C=CCNc1nc(NCC=C)nc(N2CCC(NCCC(c3ccccc3)c3ccccc3)CC2)n1 [Example 6, 1-[4,6-bis(allylamino)-2-s-triazinyl]-4-(3,3-diphenylpropylamino)-piperidine] | 54.4 | TOX | TOX | 220 | TOX | 3.9 | 21.5 | 29.75 | TOX | 32.9 | 60.1 | 55.8 | TOX | TOX | < 16.5 |
| C=CCNc1nc(NCCC)nc(N2CCC(NCCC(c3ccccc3)c3ccccc3)CC2)n1 [Example 8, 1-(4-propylamino-6-allylamino-2-s-triazinyl)-4-(3,3diphenylpropylamino)piperidine] | 75.9 | TOX | TOX | TOX | TOX | 4.5 | 17.85 | 27.15 | TOX | 38.9 | 60.1 | TOX | TOX | TOX | 16.5 |
